# Tested on: CN0375-F725-PDC KRAS spheroid viability
# Assay: Anticancer human tumor CN0375-F725-PDC patient-derived colon carcinoma cell line growth inhibition [KRAS2]
# Settings: spheroids with HUVEC and MSC; for IC50: curve of first compound; for viability, T/C: stronger effect = lower value
# Summary of the method: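 Combination screen of spheroid viability in tumor-cell co-cultures with endothelial (HUVEC) and mesenchymal stem cell stroma. Each agent was tested in half-log dilutions, topping at clinical Cmax or at 10 microM without a known Cmax.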
# [1] = second compound 0.1 µM, first compound 0.01 µM
# [2] = second compound 0.1 µM, first compound 0.0316 µM
# [3] = second compound 0.1 µM, first compound 0.1 µM
# [4] = second compound 0.1 µM, first compound 0.316 µM
# [5] = second compound 0.1 µM, first compound 1 µM
# [6] = second compound 0.1 µM, first compound 3.16 µM
# [7] = second compound 0.316 µM, first compound 0.01 µM
# [8] = second compound 0.316 µM, first compound 0.0316 µM
# [9] = second compound 0.316 µM, first compound 0.1 µM
# [10] = second compound 0.316 µM, first compound 0.316 µM
# [11] = second compound 0.316 µM, first compound 1 µM
# [12] = second compound 0.316 µM, first compound 3.16 µM
# [13] = second compound 1 µM, first compound 0.01 µM
# [14] = second compound 1 µM, first compound 0.0316 µM
# [15] = second compound 1 µM, first compound 0.1 µM
# [16] = second compound 1 µM, first compound 0.316 µM
# [17] = second compound 1 µM, first compound 1 µM
# [18] = second compound 1 µM, first compound 3.16 µM
# [19] = second compound 3.16 µM, first compound 0.01 µM
# [20] = second compound 3.16 µM, first compound 0.0316 µM
# [21] = second compound 3.16 µM, first compound 0.1 µM
# [22] = second compound 3.16 µM, first compound 0.316 µM
# [23] = second compound 3.16 µM, first compound 1 µM
# [24] = second compound 3.16 µM, first compound 3.16 µM
# [25] = second compound 10 µM, first compound 0.01 µM
# [26] = second compound 10 µM, first compound 0.0316 µM
# [27] = second compound 10 µM, first compound 0.1 µM
# [28] = second compound 10 µM, first compound 0.316 µM
# [29] = second compound 10 µM, first compound 1 µM
# [30] = second compound 10 µM, first compound 3.16 µM
# [31] = second compound 0.1 µM, first compound 10 µM
# [32] = second compound 0.316 µM, first compound 10 µM
# [33] = second compound 1 µM, first compound 10 µM
# [34] = second compound 3.16 µM, first compound 10 µM
# [35] = second compound 10 µM, first compound 10 µM
# 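Note: spheroids exposed to agents for 7 days.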
Compound,IC50 (second compound 0.1 µM) [nM],IC50 (second compound 0.316 µM) [nM],IC50 (second compound 1 µM) [nM],IC50 (second compound 3.16 µM) [nM],IC50 (second compound 10 µM) [nM],"viability, T/C [2] [%]","viability, T/C [3] [%]","viability, T/C [4] [%]","viability, T/C [5] [%]","viability, T/C [8] [%]","viability, T/C [9] [%]","viability, T/C [10] [%]","viability, T/C [11] [%]","viability, T/C [14] [%]","viability, T/C [15] [%]","viability, T/C [16] [%]","viability, T/C [17] [%]","viability, T/C [20] [%]","viability, T/C [21] [%]","viability, T/C [22] [%]",further results
CC1COCCN1c1cc(-c2ccnn2C)c2ccnc(-c3ccn[nH]3)c2n1 (stereo not given) + COc1cc2nc(C)nc(NC(C)c3cc(N)cc(C(F)(F)F)c3)c2cc1OC1CCOC1,> 3160,> 3160,> 3160,2720,< 10,95,86.5,78.3,71.1,91.4,76,74.8,67.9,96.1,78,71.8,65.6,88.2,71.7,65.3,"viability, T/C [1]: 101%; viability, T/C [6]: 54.1%; viability, T/C [7]: 98.7%; viability, T/C [12]: 50.8%; viability, T/C [13]: 101%; viability, T/C [18]: 49.5%; viability, T/C [19]: 87.5%; viability, T/C [23]: 58.1%; viability, T/C [24]: 48.1%; viability, T/C [25]: 15%; viability, T/C [26]: 19.3%; viability, T/C [27]: 17.1%; viability, T/C [28]: 13.9%; viability, T/C [29]: 18.1%; viability, T/C [30]: 9.84%"
CCN1CCN(Cc2ccc(Nc3ncc(F)c(-c4cc(F)c5nc(C)n(C(C)C)c5c4)n3)nc2)CC1 + COc1cc2nc(C)nc(NC(C)c3cc(N)cc(C(F)(F)F)c3)c2cc1OC1CCOC1,> 1000,> 1000,> 1000,> 1000,< 3.16,81.9,88.1,90.7,94.7,79.2,82,92.8,78,79.3,81.6,86.5,83,71.3,70.7,71.7,"viability, T/C (second compound 0.1 µM, first compound 0.00316 µM): 96.4%; viability, T/C [1]: 89.7%; viability, T/C (second compound 0.316 µM, first compound 0.00316 µM): 93%; viability, T/C [7]: 91.2%; viability, T/C (second compound 1 µM, first compound 0.00316 µM): 91.1%; viability, T/C [13]: 85.3%; viability, T/C (second compound 3.16 µM, first compound 0.00316 µM): 84.3%; viability, T/C [19]: 79.9%; viability, T/C [23]: 49.5%; viability, T/C (second compound 10 µM, first compound 0.00316 µM): 14.6%; viability, T/C [25]: 14.5%; viability, T/C [26]: 13.4%; viability, T/C [27]: 15.4%; viability, T/C [28]: 6.49%; viability, T/C [29]: 0.9%"
CCNC(=O)CC1N=C(c2ccc(Cl)cc2)c2cc(OC)ccc2-n2c(C)nnc21 (stereo not given) + COc1cc2nc(C)nc(NC(C)c3cc(N)cc(C(F)(F)F)c3)c2cc1OC1CCOC1,8600,6560,7200,1960,< 31.6,97.9,88.2,77.7,78.2,94.2,87.6,78.1,71.7,87.4,84.5,71.2,69.7,79.1,79.4,64.9,"viability, T/C [6]: 63.7%; viability, T/C [31]: 45.8%; viability, T/C [12]: 63.4%; viability, T/C [32]: 42.5%; viability, T/C [18]: 60.6%; viability, T/C [33]: 45.4%; viability, T/C [23]: 58.6%; viability, T/C [24]: 44.8%; viability, T/C [34]: 32.5%; viability, T/C [26]: 12.7%; viability, T/C [27]: 8.68%; viability, T/C [28]: 5%; viability, T/C [29]: 3.29%; viability, T/C [30]: 2.26%; viability, T/C [35]: 1.29%"
Cn1nccc1Nc1nccc(-c2cc3c(s2)C(C)(C)N(CCN2CCOCC2)C3=O)n1 + COc1cc2nc(C)nc(NC(C)c3cc(N)cc(C(F)(F)F)c3)c2cc1OC1CCOC1,2530,2200,1570,487,< 31.6,96.5,85.8,68.7,59.9,88.8,83.2,67.2,59.9,92.9,80.5,63.8,53.2,75.6,68.8,53.8,"viability, T/C [6]: 47.2%; viability, T/C [31]: 41.6%; viability, T/C [12]: 45.2%; viability, T/C [32]: 39.6%; viability, T/C [18]: 46.1%; viability, T/C [33]: 37.6%; viability, T/C [23]: 41.6%; viability, T/C [24]: 35.1%; viability, T/C [34]: 28.2%; viability, T/C [26]: 11.9%; viability, T/C [27]: 13.1%; viability, T/C [28]: 10.9%; viability, T/C [29]: 8.43%; viability, T/C [30]: 4.35%; viability, T/C [35]: 1.87%"
